Measurements taken from paper PMC6078311, “Localization and functional characterization of the pathogenesis-related proteins Rbe1p and Rbt4p in Candida albicans” (PLoS ONE, 2018).

What was measured:
Rbe1p = molecular target: T1, Rbe1p (Candida albicans, UniProt Q59ZX3); experiment: in vitro [3H]-cholesterol radioligand saturation binding with purified protein; competition with unlabeled cholesterol
T1 construct: gene RBE1; codon-optimized His-tagged Rbe1p expressed in Escherichia coli

Rbt4p = molecular target: T2, Rbt4p (Candida albicans, UniProt Q5AB48); experiment: as above
T2 construct: gene RBT4; codon-optimized His-tagged Rbt4p expressed in Escherichia coli
T2 sequence (Q5AB48 20-358): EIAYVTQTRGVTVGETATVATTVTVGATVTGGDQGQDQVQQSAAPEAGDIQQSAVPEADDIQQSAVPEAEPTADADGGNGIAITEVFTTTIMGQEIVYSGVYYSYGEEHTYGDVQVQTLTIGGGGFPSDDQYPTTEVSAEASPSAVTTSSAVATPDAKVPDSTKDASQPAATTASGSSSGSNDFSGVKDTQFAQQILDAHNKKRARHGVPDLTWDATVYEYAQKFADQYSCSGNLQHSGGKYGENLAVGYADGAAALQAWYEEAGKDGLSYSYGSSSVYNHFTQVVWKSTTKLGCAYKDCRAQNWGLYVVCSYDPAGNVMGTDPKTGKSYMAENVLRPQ

T1 sequence (Q59ZX3 20-271): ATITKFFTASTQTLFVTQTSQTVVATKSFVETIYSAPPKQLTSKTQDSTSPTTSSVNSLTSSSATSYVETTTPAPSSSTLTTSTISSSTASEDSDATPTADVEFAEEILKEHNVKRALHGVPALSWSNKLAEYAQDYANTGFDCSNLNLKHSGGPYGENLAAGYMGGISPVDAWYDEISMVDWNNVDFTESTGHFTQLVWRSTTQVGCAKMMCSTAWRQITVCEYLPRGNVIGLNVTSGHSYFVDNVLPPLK

## CC(C)CCC[C@@H](C)[C@H]1CC[C@H]2[C@@H]3CC=C4C[C@@H](O)CC[C@]4(C)[C@H]3CC[C@]12C [cholesterol]
Rbe1p
  Kd: ~5.78 µM
Rbt4p
  Kd: ~3.3 µM
